Like-named read-outs stand apart in the source and are kept apart here.
Key:
Format in all cases: biochemical
[1] = biological target: hCA XII (Homo sapiens, UniProt O43570); assay: CA inhibition, stopped-flow CO2 hydrase assay, hCA XII
Protocol: (§1) An Applied Photophysics stopped-flow instrument has been used for assaying the CA-catalyzed CO2 hydration activity. […] The initial rates of the CA-catalysed CO2 hydration reaction were followed for a period of 10−100 s. The CO2 concentrations ranged from 1.7 to 17 mM for the determination of the kinetic parameters and inhibition constants. […] The uncatalyzed rates were determined in the same manner and subtracted from the total observed ones. Stock solutions of each inhibitor (0.1 mM) were prepared in distilled − deionized water and dilutions up to 0.01 nM were done thereafter with distilled − deionized water. Inhibitor and enzyme solutions were preincubated together for 15 min at room temperature prior to assay to allow for the formation of the E−I complex. The inhibition constants were obtained by nonlinear least-squares methods using the Cheng-Prusoff equation and represent the mean from at least three different determinations. […] Human CA isoforms were recombinant enzymes obtained in-house as reported earlier.

[2] = biological target: hCA IX (Homo sapiens, UniProt Q16790); assay: CA inhibition, stopped-flow CO2 hydrase assay, hCA IX
Protocol: as §1

[3] = biological target: hCA I (Homo sapiens, UniProt P00915); assay: CA inhibition, stopped-flow CO2 hydrase assay, hCA I
hCA I, sequence (P00915 whole entry): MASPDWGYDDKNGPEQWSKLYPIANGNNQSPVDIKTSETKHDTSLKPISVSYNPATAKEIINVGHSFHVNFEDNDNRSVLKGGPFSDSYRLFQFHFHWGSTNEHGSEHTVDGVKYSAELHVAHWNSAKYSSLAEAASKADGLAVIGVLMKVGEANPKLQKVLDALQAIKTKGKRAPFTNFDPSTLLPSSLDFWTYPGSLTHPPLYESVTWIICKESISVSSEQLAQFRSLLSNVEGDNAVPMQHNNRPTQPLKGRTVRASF
Protocol: as §1

[4] = biological target: hCA II (Homo sapiens, UniProt P00918); assay: CA inhibition, stopped-flow CO2 hydrase assay, hCA II
Protocol: as §1

[5] = Table 1, saccharin-based derivatives, recombinant enzyme, 15 min preincubation, pH 7.5

hCA XII, sequence (O43570 25-354): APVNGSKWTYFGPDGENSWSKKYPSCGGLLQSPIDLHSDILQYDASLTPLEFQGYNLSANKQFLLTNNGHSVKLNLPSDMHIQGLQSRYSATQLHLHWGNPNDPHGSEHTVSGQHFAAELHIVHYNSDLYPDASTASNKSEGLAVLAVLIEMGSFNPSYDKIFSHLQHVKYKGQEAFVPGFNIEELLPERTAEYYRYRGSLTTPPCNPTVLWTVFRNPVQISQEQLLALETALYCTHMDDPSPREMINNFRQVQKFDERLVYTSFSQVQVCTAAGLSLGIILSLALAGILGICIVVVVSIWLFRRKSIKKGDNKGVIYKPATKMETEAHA

Row | Ki [1] [µM] | Ki [2] [µM] | Ki [2, 5] [µM] | Ki [3] [µM] | Ki [3, 5] [µM] | Ki [4] [µM] | Ki [4, 5] [µM] | inhibitory activity against hCA I, in words [3] | inhibitory activity against hCA II, in words [4] | Ki [1, 5] [µM] | Structure (SMILES)
1 | 0.23 | 0.39 | 0.39 | > 1000 | > 1000 | > 1000 | > 1000 | – | – | – | CC(C)=CCN1C(=O)c2ccccc2S1(=O)=O [Compound 1]
2 | 0.22 | – | 0.3 | – | > 1000 | – | > 1000 | ineffective | ineffective | – | O=C1c2ccccc2S(=O)(=O)N1Cc1ccccc1Cl [Compound 2]
3 | 1.3 | 0.3 | 0.1 | – | > 1000 | – | > 1000 | ineffective | ineffective | – | O=C1c2ccccc2S(=O)(=O)N1Cc1cccc(Cl)c1 [Compound 3]
4 | – | – | 59.6 | – | > 1000 | – | > 1000 | – | – | > 1000 | COC(=O)c1ccccc1S(=O)(=O)Nc1ccccc1 [Compound 5]
5 | – | – | 262 | – | > 1000 | – | > 1000 | – | – | > 1000 | COC(=O)c1ccccc1S(=O)(=O)Nc1ccc(F)cc1 [Compound 6]
6 | – | – | 428 | – | > 1000 | – | > 1000 | – | – | > 1000 | COC(=O)c1ccccc1S(=O)(=O)Nc1ccccc1Cl [Compound 7]
7 | – | – | 955 | – | > 1000 | – | > 1000 | – | – | > 1000 | COC(=O)c1ccccc1S(=O)(=O)Nc1ccc(Cl)cc1 [Compound 8]
8 | – | – | 6.7 | – | > 1000 | – | 689 | – | – | > 1000 | COC(=O)c1ccccc1S(=O)(=O)Nc1ccc(Br)cc1 [Compound 9]
9 | – | – | 563 | – | > 1000 | – | > 1000 | – | – | > 1000 | COC(=O)c1ccccc1S(=O)(=O)Nc1ccc(C(F)(F)F)cc1 [Compound 10]
10 | – | – | > 1000 | – | > 1000 | – | > 1000 | – | – | > 1000 | COC(=O)c1ccccc1S(=O)(=O)Nc1cccc([N+](=O)[O-])c1 [Compound 11]
11 | – | – | 62.8 | – | > 1000 | – | > 1000 | – | – | > 1000 | COC(=O)c1ccccc1S(=O)(=O)Nc1ccc([N+](=O)[O-])cc1 [Compound 12]
12 | – | – | 68.2 | – | > 1000 | – | > 1000 | – | – | > 1000 | COC(=O)c1ccccc1S(=O)(=O)Nc1ccc(C)cc1 [Compound 13]
13 | – | – | 39.7 | – | > 1000 | – | > 1000 | – | – | > 1000 | COC(=O)c1ccccc1S(=O)(=O)Nc1c(C)cccc1C [Compound 14]
14 | – | – | 57.6 | – | > 1000 | – | > 1000 | – | – | > 1000 | COC(=O)c1ccccc1S(=O)(=O)Nc1ccc(C(C)C)cc1 [Compound 15]
15 | – | – | 93.3 | – | > 1000 | – | > 1000 | – | – | > 1000 | COC(=O)c1ccccc1S(=O)(=O)Nc1ccc(OC)cc1 [Compound 16]
16 | – | – | 46.5 | – | > 1000 | – | > 1000 | – | – | > 1000 | O=C(O)c1ccccc1S(=O)(=O)Nc1ccccc1 [Compound 17]
17 | – | – | 45.8 | – | > 1000 | – | > 1000 | – | – | > 1000 | O=C(O)c1ccccc1S(=O)(=O)Nc1ccc(F)cc1 [Compound 18]
18 | – | – | > 1000 | – | > 1000 | – | > 1000 | – | – | > 1000 | O=C(O)c1ccccc1S(=O)(=O)Nc1ccccc1Cl [Compound 19]
19 | – | – | > 1000 | – | > 1000 | – | > 1000 | – | – | > 1000 | O=C(O)c1ccccc1S(=O)(=O)Nc1ccc(Cl)cc1 [Compound 20]
20 | – | – | 72.8 | – | > 1000 | – | > 1000 | – | – | > 1000 | O=C(O)c1ccccc1S(=O)(=O)Nc1ccc(Br)cc1 [Compound 21]

Row | Ki [1] [µM] | Ki [2] [µM] | Ki [2, 5] [µM] | Ki [3] [µM] | Ki [3, 5] [µM] | Ki [4] [µM] | Ki [4, 5] [µM] | inhibitory activity against hCA I, in words [3] | inhibitory activity against hCA II, in words [4] | Ki [1, 5] [µM] | Structure (SMILES)
21 | – | – | 84.8 | – | > 1000 | – | > 1000 | – | – | > 1000 | O=C(O)c1ccccc1S(=O)(=O)Nc1ccc(C(F)(F)F)cc1 [Compound 22]
22 | – | – | > 1000 | – | > 1000 | – | > 1000 | – | – | > 1000 | O=C(O)c1ccccc1S(=O)(=O)Nc1cccc([N+](=O)[O-])c1 [Compound 23]
23 | – | 0.24 | 0.24 | – | > 1000 | 66.9 | – | – | – | > 1000 | O=C(O)c1ccccc1S(=O)(=O)Nc1ccc([N+](=O)[O-])cc1 [Compound 24]
24 | – | – | > 1000 | – | > 1000 | – | > 1000 | – | – | > 1000 | Cc1ccc(NS(=O)(=O)c2ccccc2C(=O)O)cc1 [Compound 25]
25 | – | – | > 1000 | – | > 1000 | – | > 1000 | – | – | > 1000 | Cc1cccc(C)c1NS(=O)(=O)c1ccccc1C(=O)O [Compound 26]
26 | – | – | > 1000 | – | > 1000 | – | > 1000 | – | – | > 1000 | CC(C)c1ccc(NS(=O)(=O)c2ccccc2C(=O)O)cc1 [Compound 27]
27 | – | – | > 1000 | – | > 1000 | – | > 1000 | – | – | > 1000 | COc1ccc(NS(=O)(=O)c2ccccc2C(=O)O)cc1 [Compound 28]
28 | – | – | > 1000 | – | > 1000 | – | > 1000 | – | – | > 1000 | O=C1c2ccccc2S(=O)(=O)N1c1ccccc1 [Compound 29]
29 | – | – | > 1000 | – | > 1000 | – | > 1000 | – | – | > 1000 | O=C1c2ccccc2S(=O)(=O)N1c1ccc(F)cc1 [Compound 30]
30 | – | – | 640 | – | > 1000 | 478 | – | – | – | > 1000 | O=C1c2ccccc2S(=O)(=O)N1c1ccccc1Cl [Compound 31]
31 | – | – | > 1000 | – | > 1000 | – | > 1000 | – | – | > 1000 | O=C1c2ccccc2S(=O)(=O)N1c1ccc(Cl)cc1 [Compound 32]
32 | – | – | 869 | – | > 1000 | – | > 1000 | – | – | > 1000 | O=C1c2ccccc2S(=O)(=O)N1c1ccc(Br)cc1 [Compound 33]
33 | – | – | > 1000 | – | > 1000 | – | > 1000 | – | – | > 1000 | O=C1c2ccccc2S(=O)(=O)N1c1ccc(C(F)(F)F)cc1 [Compound 34]
34 | – | – | > 1000 | – | > 1000 | – | > 1000 | – | – | > 1000 | O=C1c2ccccc2S(=O)(=O)N1c1cccc([N+](=O)[O-])c1 [Compound 35]
35 | – | 443 | 444 | – | > 1000 | – | > 1000 | – | – | > 1000 | O=C1c2ccccc2S(=O)(=O)N1c1ccc([N+](=O)[O-])cc1 [Compound 36]
36 | – | – | > 1000 | – | > 1000 | – | > 1000 | – | – | > 1000 | Cc1ccc(N2C(=O)c3ccccc3S2(=O)=O)cc1 [Compound 37]
37 | – | – | > 1000 | – | > 1000 | – | > 1000 | – | – | > 1000 | Cc1cccc(C)c1N1C(=O)c2ccccc2S1(=O)=O [Compound 38]
38 | – | – | > 1000 | – | > 1000 | – | > 1000 | – | – | > 1000 | CC(C)c1ccc(N2C(=O)c3ccccc3S2(=O)=O)cc1 [Compound 39]
39 | – | – | > 1000 | – | > 1000 | – | > 1000 | – | – | > 1000 | COc1ccc(N2C(=O)c3ccccc3S2(=O)=O)cc1 [Compound 40]

Row | Structure (SMILES) | Ki [1] [µM] | Ki [2] [µM] | Ki [2, 5] [µM] | Ki [3] [µM] | Ki [3, 5] [µM] | Ki [4] [µM] | Ki [4, 5] [µM] | inhibitory activity against hCA I, in words [3] | inhibitory activity against hCA II, in words [4] | Ki [1, 5] [µM]
40 | O=C(CN1C(=O)c2ccccc2S1(=O)=O)c1cccc([N+](=O)[O-])c1 [Compound 4] | 0.41 | > 1000 | > 1000 | – | > 1000 | – | > 1000 | ineffective | ineffective | –

From PMC7580763, “Novel insights on saccharin- and acesulfame-based carbonic anhydrase inhibitors: design, synthesis, modelling investigations and biological activity evaluation” (Journal of Enzyme Inhibition and Medicinal Chemistry, 2020)
